According to BindingDB's records for patent US10030020 (ABIDE THERAPEUTICS, INC., 2018):

Molecular target: T1, Monoacylglycerol lipase ABHD6 (Mus musculus, UniProt Q8R2Y0)
T1 sequence (Q8R2Y0 whole entry): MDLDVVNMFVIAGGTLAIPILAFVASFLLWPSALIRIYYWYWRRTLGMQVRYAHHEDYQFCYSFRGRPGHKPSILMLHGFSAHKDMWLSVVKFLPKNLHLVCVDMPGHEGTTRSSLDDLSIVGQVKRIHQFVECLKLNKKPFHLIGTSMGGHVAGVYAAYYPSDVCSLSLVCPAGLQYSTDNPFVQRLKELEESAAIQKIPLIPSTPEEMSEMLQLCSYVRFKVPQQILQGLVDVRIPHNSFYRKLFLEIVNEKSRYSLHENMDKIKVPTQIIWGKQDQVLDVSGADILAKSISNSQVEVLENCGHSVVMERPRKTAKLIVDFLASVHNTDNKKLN
Assay: In Vitro Competitive Activity-Based Protein Profiling
Protocol: Proteomes (mouse brain membrane fraction or cell lysates) (50 μL, 1.0 mg/mL total protein concentration) were preincubated with varying concentrations of inhibitors at 37° C. After 30 min, FP Rh (1.0 μL, 50 μM in DMSO) was added and the mixture was incubated for another 30 min at 37° C. Reactions were quenched with SDS loading buffer (50 μL-4×) and run on SDS-PAGE.

With O=C(OC(C(F)(F)F)C(F)(F)F)N1CCC2(CCCN2Cc2ccc(OCCN3CCOCC3)cc2)CC1 [US10030020, Example 14] the IC50 was over 1000 nM.
